Results reported in PubChem BioAssay (NCI).
Several values for one entry are separate records, joined by “and”; a condition that tells them apart may be missing. Equal entries are not always repeated.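 Grown in 96-well plates, cells were treated for 48 hours with each compound at five concentrations. Insufficient inhibition: endpoint recorded as highest concentration tested. GI50: concentration for 50% inhibition of growth. TGI marks complete inhibition of growth.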

Experiments:
Assay in all cases: NCI anticancer screen, dose series, 48 h
786-0 renal = system: 786-0 renal
A498 renal = system: A498 renal
A549 NSCLC = system: A549 NSCLC
ACHN renal = system: ACHN renal
BT-549 breast = system: BT-549 breast
CAKI-1 renal = system: CAKI-1 renal
CCRF-CEM leukemia = system: CCRF-CEM leukemia
COLO 205 colon = system: COLO 205 colon
DU-145 prostate = system: DU-145 prostate
EKVX NSCLC = system: EKVX NSCLC
HCC-2998 colon = system: HCC-2998 colon
HCT-116 colon = system: HCT-116 colon
HCT-15 colon = system: HCT-15 colon
HL-60(TB) leukemia = system: HL-60(TB) leukemia
HOP-62 NSCLC = system: HOP-62 NSCLC
HOP-92 NSCLC = system: HOP-92 NSCLC
HS 578T breast = system: HS 578T breast
HT29 colon = system: HT29 colon
IGROV1 ovarian = system: IGROV1 ovarian
K-562 leukemia = system: K-562 leukemia
KM12 colon = system: KM12 colon
LOX IMVI melanoma = system: LOX IMVI melanoma
M14 melanoma = system: M14 melanoma
MALME-3M melanoma = system: MALME-3M melanoma
MCF7 breast = system: MCF7 breast
MDA-MB-231 breast = system: MDA-MB-231 breast
MDA-MB-435 = system: MDA-MB-435
MOLT-4 leukemia = system: MOLT-4 leukemia
NCI-H226 lung = system: NCI-H226 lung
NCI-H23 lung = system: NCI-H23 lung
NCI-H460 lung = system: NCI-H460 lung
NCI-H522 lung = system: NCI-H522 lung
NCI/ADR-RES ovarian = system: NCI/ADR-RES ovarian
OVCAR-3 ovarian = system: OVCAR-3 ovarian
OVCAR-4 ovarian = system: OVCAR-4 ovarian
OVCAR-5 ovarian = system: OVCAR-5 ovarian
OVCAR-8 ovarian = system: OVCAR-8 ovarian
PC-3 prostate = system: PC-3 prostate
RPMI-8226 leukemia = system: RPMI-8226 leukemia
RXF 393 renal = system: RXF 393 renal
SF-268 CNS = system: SF-268 CNS
SF-295 CNS = system: SF-295 CNS
SF-539 CNS = system: SF-539 CNS
SK-MEL-2 melanoma = system: SK-MEL-2 melanoma
SK-MEL-28 melanoma = system: SK-MEL-28 melanoma
SK-MEL-5 melanoma = system: SK-MEL-5 melanoma
SK-OV-3 ovarian = system: SK-OV-3 ovarian
SN12C renal = system: SN12C renal
SNB-19 CNS = system: SNB-19 CNS
SNB-75 CNS = system: SNB-75 CNS
SR leukemia = system: SR leukemia
SW-620 colon = system: SW-620 colon
T-47D breast = system: T-47D breast
TK-10 renal = system: TK-10 renal
U251 CNS = system: U251 CNS
UACC-257 melanoma = system: UACC-257 melanoma
UACC-62 melanoma = system: UACC-62 melanoma
UO-31 renal = system: UO-31 renal

CNc1ccc2nc3ccc(=[N+](C)C)cc-3sc2c1
GI50 (786-0 renal): 3840 nM and 1270 nM | TGI (786-0 renal): 17600 nM and 16000 nM | GI50 (A498 renal): 2980 nM and 6490 nM | TGI (A498 renal): 25400 nM and 28200 nM | GI50 (A549 NSCLC): 417 nM and 338 nM | TGI (A549 NSCLC): 12100 nM and 5210 nM | GI50 (ACHN renal): 815 nM and 1020 nM | TGI (ACHN renal): 10600 nM and 4230 nM | GI50 (BT-549 breast): 4870 nM and 5730 nM | TGI (BT-549 breast): 20700 nM and 22600 nM | GI50 (CAKI-1 renal): 1280 nM and 1400 nM | TGI (CAKI-1 renal): 9170 nM and 6020 nM | GI50 (CCRF-CEM leukemia): 432 nM and 489 nM | TGI (CCRF-CEM leukemia): 17000 nM and > 100000 nM | GI50 (COLO 205 colon): 626 nM and 365 nM | TGI (COLO 205 colon): 3030 nM and 1440 nM | GI50 (DU-145 prostate): 3600 nM and 2760 nM | TGI (DU-145 prostate): 16100 nM and 11900 nM | GI50 (EKVX NSCLC): 4630 nM and 518 nM | TGI (EKVX NSCLC): 23400 nM and 14500 nM | GI50 (HCC-2998 colon): 2840 nM and 1120 nM | TGI (HCC-2998 colon): 15900 nM and 18600 nM | GI50 (HCT-116 colon): 304 nM and 246 nM | TGI (HCT-116 colon): 8700 nM and 1470 nM | GI50 (HCT-15 colon): 1570 nM and 424 nM | TGI (HCT-15 colon): 18200 nM and 16500 nM | GI50 (HL-60(TB) leukemia): 236 nM and 343 nM | TGI (HL-60(TB) leukemia): 1410 nM and 3390 nM | GI50 (HOP-62 NSCLC): 2540 nM and 867 nM | TGI (HOP-62 NSCLC): 15700 nM and 7920 nM | TGI (HOP-92 NSCLC): 29800 nM and 5060 nM | GI50 (HS 578T breast): 4680 nM and 1980 nM | GI50 (HT29 colon): 2920 nM and 3060 nM | TGI (HT29 colon): 12200 nM and 12500 nM | GI50 (IGROV1 ovarian): 2360 nM and 1280 nM | TGI (IGROV1 ovarian): 10500 nM and 4060 nM | GI50 (K-562 leukemia): 513 nM and 756 nM | TGI (K-562 leukemia): 14100 nM and 47400 nM | GI50 (KM12 colon): 1150 nM and 651 nM | TGI (KM12 colon): 17600 nM and 11600 nM | GI50 (LOX IMVI melanoma): 443 nM and 368 nM | TGI (LOX IMVI melanoma): 4470 nM and 2150 nM | GI50 (M14 melanoma): 1200 nM and 347 nM | TGI (M14 melanoma): 12000 nM and 1500 nM | GI50 (MALME-3M melanoma): 335 nM and 482 nM | TGI (MALME-3M melanoma): 2360 nM and 1970 nM | GI50 (MCF7 breast): 801 nM and 284 nM | TGI (MCF7 breast): 6840 nM and 3620 nM | GI50 (MDA-MB-231 breast): 426 nM and 345 nM | TGI (MDA-MB-231 breast): 5590 nM and 3630 nM | GI50 (MDA-MB-435): 547 nM and 785 nM | TGI (MDA-MB-435): 2330 nM and 2850 nM | GI50 (MOLT-4 leukemia): 637 nM and 667 nM | TGI (MOLT-4 leukemia): 12100 nM and 9360 nM | GI50 (NCI-H226 lung): 2310 nM and 2530 nM | TGI (NCI-H226 lung): 10800 nM and 12400 nM | GI50 (NCI-H23 lung): 817 nM and 323 nM | TGI (NCI-H23 lung): 7910 nM and 2750 nM | GI50 (NCI-H460 lung): 2320 nM and 879 nM | TGI (NCI-H460 lung): 18500 nM and 11500 nM | GI50 (NCI-H522 lung): 291 nM and 465 nM | TGI (NCI-H522 lung): 1330 nM and 3790 nM | GI50 (NCI/ADR-RES ovarian): 389 nM and 298 nM | TGI (NCI/ADR-RES ovarian): 9170 nM and 7580 nM | GI50 (OVCAR-3 ovarian): 408 nM and 205 nM | GI50 (OVCAR-4 ovarian): 398 nM and 299 nM | TGI (OVCAR-4 ovarian): 1740 nM and 1900 nM | GI50 (OVCAR-5 ovarian): 2850 nM and 514 nM | TGI (OVCAR-5 ovarian): 6860 nM and 4310 nM | GI50 (OVCAR-8 ovarian): 298 nM and 278 nM | TGI (OVCAR-8 ovarian): 1790 nM and 1550 nM | GI50 (PC-3 prostate): 410 nM and 203 nM | TGI (PC-3 prostate): 11600 nM and 2870 nM | GI50 (RPMI-8226 leukemia): 287 nM and 800 nM | TGI (RPMI-8226 leukemia): 14600 nM and 28000 nM | GI50 (RXF 393 renal): 3530 nM and 5320 nM | TGI (RXF 393 renal): 11400 nM and 14300 nM | GI50 (SF-268 CNS): 2280 nM and 465 nM | TGI (SF-268 CNS): 18700 nM and 8700 nM | GI50 (SF-295 CNS): 1350 nM and 411 nM | TGI (SF-295 CNS): 10300 nM and 3220 nM | GI50 (SF-539 CNS): 383 nM and 278 nM | TGI (SF-539 CNS): 2650 nM and 1730 nM | GI50 (SK-MEL-2 melanoma): 1120 nM and 1070 nM | TGI (SK-MEL-2 melanoma): 3810 nM and 5250 nM | GI50 (SK-MEL-28 melanoma): 4250 nM and 1550 nM | TGI (SK-MEL-28 melanoma): 14800 nM and 9270 nM | GI50 (SK-MEL-5 melanoma): 212 nM and 263 nM | TGI (SK-MEL-5 melanoma): 990 nM and 875 nM | GI50 (SK-OV-3 ovarian): 4290 nM and 3810 nM | TGI (SK-OV-3 ovarian): 18700 nM and 19100 nM | GI50 (SN12C renal): 1080 nM and 466 nM | TGI (SN12C renal): 3310 nM and 4160 nM | GI50 (SNB-19 CNS): 747 nM and 324 nM | TGI (SNB-19 CNS): 8830 nM and 6110 nM | GI50 (SNB-75 CNS): 1890 nM and 1340 nM | TGI (SNB-75 CNS): 7360 nM and 7140 nM | GI50 (SR leukemia): 635 nM and 2220 nM | TGI (SR leukemia): 12100 nM and > 100000 nM | GI50 (SW-620 colon): 1630 nM and 424 nM | TGI (SW-620 colon): 12500 nM and 10500 nM | GI50 (T-47D breast): 1860 nM and 489 nM | TGI (T-47D breast): 8900 nM and 12500 nM | GI50 (TK-10 renal): 2300 nM and 3360 nM | TGI (TK-10 renal): 7690 nM and 14600 nM | GI50 (U251 CNS): 412 nM and 267 nM | TGI (U251 CNS): 5600 nM and 1680 nM | GI50 (UACC-257 melanoma): 962 nM and 331 nM | TGI (UACC-257 melanoma): 4520 nM and 1910 nM | GI50 (UACC-62 melanoma): 799 nM and 1100 nM | TGI (UACC-62 melanoma): 2860 nM and 3600 nM | GI50 (UO-31 renal): 2740 nM and 2200 nM | TGI (UO-31 renal): 19000 nM and 16300 nM
